In patent US5869662A, “Photochromic benzopyran compounds” (Vision-Ease Lens, Inc., priority 1997, dated 1999):

Columns and labels:
[1] = Maximum absorption wavelength (λmax) of the activated form in chloroform under ultraviolet irradiation; format: physicochemical; settings: UV irradiation, 350 nm
Description: Two grams of the propargyl alcohol obtained in Step 1 were mixed with 1.25 grams of 2-hydroxydibenzofuran in 200 milliliters of benzene. Twenty milligrams of p-toluenesultonic acid were then added and the mixture was stirred under reflux for 8 hours. The resultant mixture was cooled and washed with 10% aqueous sodium hydroxide. The organic solvent (benzene) was removed using a rotary evaporator. The resulting material was dissolved in hexane and the resulting hexane solution was cooled to yield a recrystallized product.
The recrystallized product formed in Step 2 of Example 1; the 3-(4-biphenytyl)-3-phenyl-8-methoxy-3H-naphtho[2,1b]pyran formed in Comparative Example 1; and a purchased sample of 3,3-diphenyl-3H-naphtho-[2,1b]pyran (identified as Comparative Example 2) were each individually dissolved in chloroform in separate containers. These chloroform dissolved substances were then irradiated with ultraviolet light with a maximum wavelength of 350 manometers and measured for maximum absorption wavelength, λmax. The fade time, T1/2, was then determined for each of the irradiated substances. […] The maximum absorption wavelength and fade time determined for the irradiated substances of Example 1 and Comparative Examples 1-2 are presented in Table 1: […]

[2] = Becker patent; cited from earlier work
[3] = Fade time (T1/2) of the activated form in chloroform at room temperature; format: physicochemical; settings: room temperature (72° F.), absorbance of activated form falls to one half of maximum after isolation from UV
Description: These chloroform dissolved substances were then irradiated with ultraviolet light with a maximum wavelength of 350 manometers and measured for maximum absorption wavelength, λmax. The fade time, T1/2, was then determined for each of the irradiated substances. The fade time for of the chloroform-dissolved substances is defined as the time interval, at room temperature (72° F.), for the absorbance of the activated form of each chloroform-dissolved substance to decrease to one half of the maximum absorbance, after the substance is isolated from the activating source of ultraviolet light.

Row | maximum absorption wavelength, λmax (only or shorter-wavelength maximum) [1] | fade time, T1/2 [3] | Compound | photochromic at room temperature [2]
1 | 484 nanometers | – | COc1ccc2c3c(ccc2c1)OC(c1ccccc1)(c1ccc(-c2ccccc2)cc1)C=C3 (stereo not shown) [Comparative Example 1, 3-(4-biphenylyl)-3-phenyl-8-methoxy-3H-naphtho[2,1b]pyran] | –
2 | 434 nanometers | 13 s | C1=CC(c2ccccc2)(c2ccccc2)Oc2ccc3ccccc3c21 [Comparative Example 2, 3,3-diphenyl-3H-naphtho-[2,1b]pyran] | photochromic at room temperature
